Test results published in ChEMBL document CHEMBL2074230, “Interaction and transport of thiazide diuretics, loop diuretics, and acetazolamide via rat renal organic anion transporter rOAT1” (J Pharmacol Exp Ther, 2000).
One block for each molecule: values may come before it.

What was measured:
[1] = molecular target: T1, Solute carrier family 22 member 6 (Rattus norvegicus, UniProt O35956); assay: TP_TRANSPORTER: inhibition of PAH uptake in Xenopus laevis oocytes; assay type: functional, cell-based, Oocyte; details: for Activity: xenopus laevis, oocyte
T1 sequence (O35956 whole entry): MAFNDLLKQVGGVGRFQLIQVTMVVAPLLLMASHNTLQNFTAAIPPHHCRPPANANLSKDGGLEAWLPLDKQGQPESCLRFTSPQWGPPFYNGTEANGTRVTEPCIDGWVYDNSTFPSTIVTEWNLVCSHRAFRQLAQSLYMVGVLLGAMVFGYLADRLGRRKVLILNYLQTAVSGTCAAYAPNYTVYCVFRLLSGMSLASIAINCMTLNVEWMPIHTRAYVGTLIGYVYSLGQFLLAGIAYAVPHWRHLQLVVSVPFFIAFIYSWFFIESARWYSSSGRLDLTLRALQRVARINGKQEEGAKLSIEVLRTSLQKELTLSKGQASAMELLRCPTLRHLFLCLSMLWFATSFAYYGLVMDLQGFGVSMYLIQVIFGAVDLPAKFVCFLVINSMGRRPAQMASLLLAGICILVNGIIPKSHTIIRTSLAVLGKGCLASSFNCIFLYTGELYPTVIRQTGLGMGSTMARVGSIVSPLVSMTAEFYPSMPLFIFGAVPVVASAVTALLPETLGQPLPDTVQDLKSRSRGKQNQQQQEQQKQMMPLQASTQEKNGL

[2] = molecular target: T1, Solute carrier family 22 member 6; assay: TP_TRANSPORTER: uptake in Xenopus laevis oocytes; assay type: functional, cell-based; details: oocyte
[3] = substrate: Nc1ccc(C(=O)NCC(=O)O)cc1; assay: cells, lysate or membranes named

- Ki [1]: 1100 µM
- Activity [2]: substrate [+]
Molecule: CC(=O)Nc1nnc(S(N)(=O)=O)s1 [ACETAZOLAMIDE]

- Activity [1]: inhibitor [+]
Molecule: CCOc1ccc2nc(S(N)(=O)=O)sc2c1 [ETHOXZOLAMIDE]

- Activity [1]: inhibitor [+]
Molecule: NS(=O)(=O)c1cc2c(cc1Cl)N=CNS2(=O)=O [CHLOROTHIAZIDE]

- Ki [1]: 5.5 µM
Molecule: CCCCNc1cc(C(=O)O)cc(S(N)(=O)=O)c1Oc1ccccc1 [BUMETANIDE]

- Ki [1]: 9.5 µM
- Activity [2]: substrate [+]
Molecule: NS(=O)(=O)c1cc(C(=O)O)c(NCc2ccco2)cc1Cl [FUROSEMIDE]

- Ki [1]: 150 µM
Molecule: NS(=O)(=O)c1cc2c(cc1Cl)NCNS2(=O)=O [HYDROCHLOROTHIAZIDE]

- Activity [1]: inhibitor [+]
Molecule: CC(=O)/N=c1/sc(S(N)(=O)=O)nn1C [METHAZOLAMIDE]

- Activity [1]: inhibitor [+]
Molecule: NS(=O)(=O)c1cc2c(cc1Cl)NC(C1CC3C=CC1C3)NS2(=O)=O (stereo unspecified) [CYCLOTHIAZIDE]

B1: Solute carrier family 22 member 6 (Rattus norvegicus) (protein)
chain: T1 sequence (O35956 whole entry)
- Km [3]: 31 µM
